Test results from article PMC12612973, “Inhibition of Human Amylin Aggregation: In Silico and In Vitro Studies” (ACS Omega, 2025).
Several values for one entry are separate records, joined by “and”; a condition that tells them apart may be missing. Identical values can stand only once.

Tests used:
human amylin (hIAPP) [1] = biological target: T1, human amylin (hIAPP) (Homo sapiens, UniProt P10997); assay: Thioflavin T (ThT) fluorescence assay of amylin aggregation; format: biochemical; details: for inhibition at 10 µM: read-out: ThT inhibition % (mean ± SEM), compound 10 μM, amylin 15 μM, 36 h incubation, 3 trials
T1 construct: purchased Bachem USA
T1 sequence (P10997 34-70 limits assumed): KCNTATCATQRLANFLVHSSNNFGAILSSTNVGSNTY
Protocol: (§1) A stock solution of amylin (1 mM) (purchased from Bachem USA), peptide sequence: […] amide (with disulfide bond between Cys2 and Cys7), was prepared in 100% hexafluoroisopropyl alcohol (HFIP) (purchased from Sigma-Aldrich) and stored at −20 °C. , Aliquots of amylin peptide were filtered through a 0.22 μm filter from the stock solution and freeze-dried. For kinetic experiments, 15 μM of amylin was prepared in 50 mM Tris-HCl buffer (pH 7.4), as investigated in previous studies by Chaari et al., , Samples of amylin were prepared in the presence or absence of inhibitors. Each compound was dissolved in DMSO and further diluted with the buffer used to solubilize the amylin. The final mixture contained 15 μM amylin, 10 μM of the test compound, 2% DMSO or 15 μM amylin, and 2% DMSO without the compound (negative control). Also 15 μM amylin, 10 μM of oleuropein aglycone and 2% DMSO was used as a positive control. The prepared solutions were incubated under physiological conditions (pH 7.4 and 37 °C) for amylin aggregation. Samples were incubated for 36 h to test for amylin aggregation, and measurements were conducted at different time points.
Amylin aggregation was monitored by characteristic changes in Thioflavin T (ThT) fluorescence intensity. A ThT stock solution (15 μM) was prepared in deionized water at pH 7.4. The amylin samples were mixed with the ThT solution and allowed to incubate. ThT fluorescence was measured using the PerkinElmer model LS 55 fluorescence spectrophotometer (PerkinElmer, USA), with an excitation wavelength of 440 nm and an emission wavelength of 480 nm. ,− The emission and excitation slits were set to 5 nm, and a 1 cm cuvette was used for all experiments. Nonspecific background fluorescence was subtracted from the samples using appropriate blanks in the absence of proteins. Each experiment was performed in triplicate.

human amylin (hIAPP) [2] = biological target: T1, human amylin (hIAPP); assay: Dynamic light scattering (DLS) assay of amylin aggregation; format: biochemical; details: compound 10 μM, amylin 15 μM, 36 h incubation, 3 trials; read-out: DLS inhibition % (mean ± SEM)
Protocol: as §1
DLS (Zetasizer, Malvern) was used at a wavelength of 633 nm to measure the average diffusion coefficient distribution of amylin particles and the aggregation percentage. Samples were diluted 10-fold, and 50 μL was placed into a 96-well plate. The total light scattering intensity at a 90° angle was collected using a 10 s averaging acquisition time. Particle translational diffusion coefficients were calculated from autocorrelated light intensity data (usually 30–40 points) and converted to the hydrodynamic radius (R h) using the Stokes–Einstein equation. A distribution plot of intensity versus R h was calculated using the Sedfit 9.3 analysis software, and intensity-weighted mean R h values were obtained from each peak.

human amylin (hIAPP) [3] = biological target: T1, human amylin (hIAPP); assay: Kinetic analysis of amylin aggregation (ThT, two-step autocatalytic aggregation model); format: biochemical; details: mean ± S.D.; for t 0 (time point when the aggregation starts): 10% of highest ThT fluorescence; for t 1/2 (aggregation halftime): 50% of highest ThT fluorescence; for t 1 (aggregation endpoint): 90% of highest ThT fluorescence; for k / k e (elongation constant) / k n (nucleation constant) / ρ (ratio of kn to k): ThT data, autocatalytic aggregation model
Protocol: Kinetic analysis was performed according to the model of autocatalytic aggregation. According to Sabaté et al., aggregation is a two-step process, comprising nucleation (described by the k n constant) and fibrillation phases (represented by the k e constant). Two constants (k n and k e) are calculated using the eq : 5 f=ρ{e^[(1+ρ)kt]−1}/{1+ρe^[(1+ρ)kt]} where k = k e a (where a represents the initial concentration of the aggregating peptide), f stands for a fraction of the fibrillar form in the system, and ρ denotes the dimensionless ratio of k n to k. The parameters k and ρ were calculated first, then k n and k e.
Data were normalized as a fraction of the highest fluorescence from the three trials and fitted into the model of autocatalytic aggregation. The same procedure was repeated for the remaining trials. The second calculation aimed to find the time parameters of the aggregation process: t 0 (time point when the aggregation starts), t 1/2 (aggregation halftime), and t 1 (aggregation endpoint). t 0, t 1/2, and t 1 were calculated as 10%, 50%, and 90% of the highest fluorescence measurements from the three trials, respectively. All calculations were performed using GraphPad Prism 9.5.1, Statistica 13.3.721.1, and Microsoft Excel 2304.

human amylin (hIAPP) [4] = biological target: T1, human amylin (hIAPP); assay: Thioflavin T (ThT) fluorescence assay of amylin aggregation; format: biochemical; details: read-out: IC50 of amylin aggregation inhibition
Aβ = tested on: Aβ; design: method as in Panek et al.; details: ref Panek et al.; cited from earlier work

CC(C)(C)c1cccc(CNCC(O)CN2CCN(C(c3ccccc3)c3ccccc3)CC2)c1 (centres unmarked) [Compound 6]
inhibition at 10 µM (human amylin (hIAPP) [1]): > 50% | inhibition at 10 µM (human amylin (hIAPP) [2]): 30.3 ± 3.1% | t 0 (time point when the aggregation starts) (human amylin (hIAPP) [3]): 8.36 ± 0.56 h | t 1/2 (aggregation halftime) (human amylin (hIAPP) [3]): 16.61 ± 0.27 h | t 1 (aggregation endpoint) (human amylin (hIAPP) [3]): 25.27 ± 0.39 h | k (human amylin (hIAPP) [3]): 0.2488 ± 0.0157 h^–1 | k e (elongation constant) (human amylin (hIAPP) [3]): 16585 M^–1h^–1 and 16585 ± 1051 M^–1h^–1 | k n (nucleation constant) (human amylin (hIAPP) [3]): 0.0039 ± 0.0009 h^–1 | ρ (ratio of kn to k) (human amylin (hIAPP) [3]): 0.0159±0.0044 | IC50 (human amylin (hIAPP) [4]): 4.11 µM | inhibition of Aβ aggregation in the ThT assay (Aβ): 77.2%

CC(C)(C)c1cccc(CNCC(O)CCN2CCN(C(c3ccccc3)c3ccccc3)CC2)c1 (centres unmarked) [Compound 13]
ThT inhibition % (mean ± SEM) (human amylin (hIAPP) [1]; compound 10 μM, amylin 15 μM, 36 h incubation, 3 trials): 74.7 ± 0.7% | inhibition at 10 µM (human amylin (hIAPP) [1]): ~75% | inhibition at 10 µM (human amylin (hIAPP) [2]): 86.7 ± 4.5% | t 0 (time point when the aggregation starts) (human amylin (hIAPP) [3]): 12.49 ± 0.19 h | t 1/2 (aggregation halftime) (human amylin (hIAPP) [3]): 20.41 ± 0.20 h | t 1 (aggregation endpoint) (human amylin (hIAPP) [3]): 28.41 ± 0.23 h | k (human amylin (hIAPP) [3]): 0.2729 ± 0.0025 h^–1 | k e (elongation constant) (human amylin (hIAPP) [3]): 18195 ± 165 M^–1h^–1 | k n (nucleation constant) (human amylin (hIAPP) [3]): 0.0011 ± 0.0001 h^–1 | ρ (ratio of kn to k) (human amylin (hIAPP) [3]): 0.0038 ± 0.0002 | IC50 (human amylin (hIAPP) [4]): 3.75 µM | inhibition of Aβ aggregation in the ThT assay (Aβ): 81.4% and ~82%
